Common to all, as to assay: In vitro cytotoxicity of camptothecin analogues (CellTiter-Glo)
What all share (assay type): cell-based
Background: In ATP-based viability assays light output follows the ATP content of the culture.

For test [1], the system named is SKOV-3 (ovarian cancer). Particulars: Homo sapiens, SK-OV-3, 96 h, read-out: pIC50 SKOV-3 (converted). The procedure:
(§1) Cytotoxicity of the camptothecin analogues was assessed in vitro as follows.
(§2) In vitro potency was assessed on multiple cancer cell lines: SK-BR-3 (breast cancer), SKOV-3 (ovarian cancer), Calu-3 (lung cancer), ZR-75-1 (breast cancer) and MDA-MB-468 (breast cancer). Serial dilutions of camptothecin analogues were prepared in RPMI 1640+10% FBS, and 20 μL of each dilution was added to 384-well plates. Cells cultured in log-phase growth were detached by brief incubation in 0.05% Trypsin and resuspended in respective culturing media at 20,000 cells/mL (with the exception of ZR-75 cells, which were resuspended at 10,000 cells/mL). 50 μL of cell suspension was then added to the plates containing test articles. Cells were incubated with test articles for 4 d at 37° C. (with the exception of ZR-75 cells, which were incubated for 5 d). Growth inhibition was assessed by CellTiter-Glo® (Promega Corporation, Madison, WI) and luminescence was measured on a plate reader. IC50 values were determined by GraphPad Prism (GraphPad Software, San Diego CA).

The subject of test [2] is ZR-75-1 (breast cancer). Particulars: Homo sapiens, ZR-75-1, 120 h, read-out: pIC50 ZR-75 (converted). The procedure: as §1, §2
Test [3] deals with MDA-MB-468 (breast cancer). Particulars: Homo sapiens, MDA-MB-468, 96 h, read-out: pIC50 MDA-MB-468 (converted). The procedure: as §1, §2
Test [4] has as its system Calu-3 (lung cancer). Particulars: Homo sapiens, Calu-3, 96 h, read-out: pIC50 Calu-3 (converted). The procedure: as §1, §2
For test [5], the system named is SK-BR-3 (breast cancer). Particulars: Homo sapiens, SK-BR-3, 96 h, read-out: pIC50 SKBR-3 (converted). The procedure: as §1, §2

The structures appear in SMILES notation.

On to `CC[C@@]1(O)C(=O)OCc2c1cc1n(c2=O)Cc2c-1nc1cc(F)c(C)cc1c2CN1CCN(c2ccc(N)cc2)CC1` [Compound 108, (S)-11-((4-(4-aminophenyl)piperazin-1-yl)methyl)-4-ethyl-8-fluoro-4-hydroxy-9-methyl-1,12-dihydro-14H-pyrano[3′,4′:6,7]indolizino[1,2-b]quinoline-3,14(4H)-dione], for which the IC50 in test [1] was 55 nM; in test [2], 18.6 nM; in test [3], 47.9 nM; in test [4], 40.7 nM; in test [5], 29.5 nM.
For the compound `CC[C@@]1(O)C(=O)OCc2c1cc1n(c2=O)Cc2c-1nc1cc(F)c(C)cc1c2CN1CCO[C@@H](CO)C1` [Compound 113, (S)-4-ethyl-8-fluoro-4-hydroxy-11-(((R)-2-(hydroxymethyl)morpholino)methyl)-9-methyl-1,12-dihydro-14H-pyrano[3′,4′:6,7]indolizino[1,2-b]quinoline-3,14(4H)-dione], the IC50 is 4.27 nM in test [1]; 2.19 nM in test [2]; 3.39 nM in test [3]; 3.02 nM in test [4]; 1.95 nM in test [5].
Consider `CC[C@@]1(O)C(=O)OCc2c1cc1n(c2=O)Cc2c-1nc1cc(F)c(C)cc1c2CN1CCSCC1CO` (stereo partly drawn) [Compound 114, (4S)-4-ethyl-8-fluoro-4-hydroxy-11-((3-(hydroxymethyl)thiomorpholino)methyl)-9-methyl-1,12-dihydro-14H-pyrano[3′,4′:6,7]indolizino[1,2-b]quinoline-3,14(4H)-dione], for which the IC50 in test [1] was 0.178 nM; in test [3] it was 0.417 nM; in test [4], 0.0933 nM; in test [5], 0.107 nM.
For `CC[C@@]1(O)C(=O)OCc2c1cc1n(c2=O)Cc2c-1nc1cc(F)c(C)cc1c2CN1C2CCC1(CO)CC2` [Compound 121], in that order: 0.195 nM, 0.269 nM, 0.145 nM and 0.148 nM.
On to `CC[C@@]1(O)C(=O)OCc2c1cc1n(c2=O)Cc2c-1nc1cc(F)c(C)cc1c2CNS(C)(=O)=O` [Compound 122, (S)-N-((4-ethyl-8-fluoro-4-hydroxy-9-methyl-3,14-dioxo-3,4,12,14-tetrahydro-1H-pyrano[3′,4′:6,7]indolizino[1,2-b]quinolin-11-yl)methyl)methanesulfonamide], for which the IC50 in test [1] was 9.12 nM; in test [2], 1.29 nM; in test [3], 1.1 nM; in test [4], 3.72 nM; in test [5], 1.12 nM.
With `CC[C@@]1(O)C(=O)OCc2c1cc1n(c2=O)Cc2c-1nc1cc(F)c(C)cc1c2CNS(=O)(=O)c1ccccc1` [Compound 125, (S)-N-((4-ethyl-8-fluoro-4-hydroxy-9-methyl-3,14-dioxo-3,4,12,14-tetrahydro-1H-pyrano[3′,4′:6,7]indolizino[1,2-b]quinolin-11-yl)methyl)benzenesulfonamide], the IC50 in test [1] is 7.08 nM; in test [2], 1.32 nM; in test [3] it was 3.8 nM; in test [4], 2.82 nM; in test [5] it was 1.32 nM.
For the compound `CC[C@@]1(O)C(=O)OCc2c1cc1n(c2=O)Cc2c-1nc1cc(F)c(C)cc1c2CNS(=O)(=O)c1ccc(N)cc1` [Compound 127, (S)-4-amino-N-((4-ethyl-8-fluoro-4-hydroxy-9-methyl-3,14-dioxo-3,4,12,14-tetrahydro-1H-pyrano[3′,4′:6,7]indolizino[1,2-b]quinolin-11-yl)methyl)benzenesulfonamide], the IC50 in test [1] was 14.5 nM; in test [2], 5.25 nM; in test [3], 3.8 nM; in test [4] it was 9.33 nM; in test [5], 3.31 nM.
As to `CC[C@@]1(O)C(=O)OCc2c1cc1n(c2=O)Cc2c-1nc1cc(F)c(OC)cc1c2CNS(=O)(=O)c1ccc(N)cc1` [Compound 128, (S)-4-amino-N-((4-ethyl-8-fluoro-4-hydroxy-9-methoxy-3,14-dioxo-3,4,12,14-tetrahydro-1H-pyrano[3′,4′:6,7]indolizino[1,2-b]quinolin-11-yl)methyl)benzenesulfonamide], the IC50 was 18.2 nM in test [1], 4.27 nM in test [2], 8.32 nM in test [3] and 5.25 nM in test [5].
On to `CC[C@@]1(O)C(=O)OCc2c1cc1n(c2=O)Cc2c-1nc1cc(F)c(C)cc1c2CNS(N)(=O)=O` [Compound 131, (S)-((4-ethyl-8-fluoro-4-hydroxy-9-methyl-3,14-dioxo-3,4,12,14-tetrahydro-1H-pyrano[3′,4′:6,7]indolizino[1,2-b]quinolin-11-yl)methyl)sulfamide], for which the IC50 was 0.955 nM in test [2], 9.12 nM in test [3], 9.12 nM in test [4] and 1.05 nM in test [5].
Turning to `CC[C@@]1(O)C(=O)OCc2c1cc1n(c2=O)Cc2c-1nc1cc(F)c(OC)cc1c2CNC(=O)NCc1ccc(N)cc1` [Compound 135, (S)-1-(4-aminobenzyl)-3-((4-ethyl-8-fluoro-4-hydroxy-9-methoxy-3,14-dioxo-3,4,12,14-tetrahydro-1/- pyrano[3′,4′:6,7]indolizino[1,2-b]quinolin-11-yl)methyl)urea], the IC50 in test [2] was 13.2 nM; in test [3], 10.7 nM; in test [5] it was 12.3 nM.
For `CC[C@@]1(O)C(=O)OCc2c1cc1n(c2=O)Cc2c-1nc1cc(F)c(N)cc1c2CN=[N+]=[N-]` [Compound 152, (S)-9-amino-11-(azidomethyl)-4-ethyl-8-fluoro-4-hydroxy-1,12-dihydro-14H-pyrano[3′,4′:6,7]indolizino[1,2-b]quinoline-3,14(4H)-dione], the IC50 in test [1] is 2.88 nM; in test [3], 5.01 nM; in test [4], 1.48 nM; in test [5], 3.24 nM.

These data come from US20260232827A1, “ANTIBODY-DRUG CONJUGATES TARGETING NAPI2B AND METHODS OF USE” (Zymeworks BC Inc., priority 2023, published 2026).
